Measured values taken from US8211662B2, “Nitroreductase enzymatic substrates” (Biomerieux, priority 2007, dated 2012).

Legend:
[1] = system: Candida glabrata NCPF 3943; assay: Nitroreductase detection on Columbia agar, colonies read under UV; format: cell-based; design: key to Intensity of fluorescence, Candida glabrata NCPF3943 / F: fluorescence (intensity), Candida glabrata NCPF 3943 / Intensity of the fluorescence, Candida glabrata NCPF 3943: − = no fluorescence detected; +/− = weak fluorescence; + = medium fluorescence; ++ = strong fluorescence; details: 100 mg/l in Columbia agar, 24 h 37° C., UV 360-365 nm
Description: (§1) A mass of 40 mg of each substrate was dissolved in 4 ml of dimethylformamide (DMF). This solution was entirely taken up in 400 ml of Columbia agar autoclaved beforehand and kept molten at 50° C. The final concentration for each substrate was 100 mg/l.
(§2) Each of the media was distributed into Petri dishes 90 mm in diameter, in a proportion of 20 ml per dish.
(§3) 18 microorganism strains derived from collections and belonging to various species of bacteria and of yeasts were inoculated onto these media by semi-quantitative isolation of 10 μl of a suspension at 0.5 McFarland diluted to 1/20. The media were incubated for 24 hours at 37° C., then the colonies formed were examined visually under UV illumination at 360-365 nm.

[2] = system: S. aureus (including MRSA) 10 strains; assay: Detection of various strains of S. aureus in the presence of substrates; format: cell-based, Staphylococcus aureus; details: for No. of strains detected, S. aureus (including MRSA): 10 strains
S. epidermidis 2 strains = assay: as above; format: cell-based
Description: as §1, §2
18 microorganism strains derived from collections and belonging to various species of bacteria and of yeasts were inoculated onto these media by semi-quantitative isolation of 10 μl of a suspension at 0.5 McFarland diluted to 1/20. […]

[3] = system: Bacillus subtilis NCTC 9372; assay: Nitroreductase detection on Columbia agar, colonies read under UV; format: cell-based; design: key: − = no fluorescence detected; +/− = weak fluorescence; + = medium fluorescence; ++ = strong fluorescence; details: 100 mg/l in Columbia agar, 24 h 37° C., UV 360-365 nm
Description: as §1, §2, §3

[4] = system: Staphylococcus aureus NCTC 6571; assay: as above; format: cell-based; design: key: − = no fluorescence detected; +/− = weak fluorescence; + = medium fluorescence; ++ = strong fluorescence; details: 100 mg/l in Columbia agar, 24 h 37° C., UV 360-365 nm
Description: as §1, §2, §3

[5] = system: Serratia marcescens NCTC 10211; assay: as above; format: cell-based; design: key: − = no fluorescence detected; +/− = weak fluorescence; + = medium fluorescence; ++ = strong fluorescence; details: 100 mg/l in Columbia agar, 24 h 37° C., UV 360-365 nm
Description: as §1, §2, §3

[6] = system: Escherichia coli NCTC 10418; assay: as above; format: cell-based; design: key: − = no fluorescence detected; +/− = weak fluorescence; + = medium fluorescence; ++ = strong fluorescence; details: 100 mg/l in Columbia agar, 24 h 37° C., UV 360-365 nm
Description: as §1, §2, §3

[7] = system: Enterobacter cloacae NCTC 11936; assay: as above; format: cell-based; design: key: − = no fluorescence detected; +/− = weak fluorescence; + = medium fluorescence; ++ = strong fluorescence; details: 100 mg/l in Columbia agar, 24 h 37° C., UV 360-365 nm
Description: as §1, §2, §3

[8] = system: Staphylococcus epidermidis NCTC 11047; assay: as above; format: cell-based; design: key: − = no fluorescence detected; +/− = weak fluorescence; + = medium fluorescence; ++ = strong fluorescence; details: 100 mg/l in Columbia agar, 24 h 37° C., UV 360-365 nm
Description: as §1, §2, §3

[9] = system: Candida albicans ATCC 90028; assay: as above; format: cell-based; design: key: − = no fluorescence detected; +/− = weak fluorescence; + = medium fluorescence; ++ = strong fluorescence; details: 100 mg/l in Columbia agar, 24 h 37° C., UV 360-365 nm
Description: as §1, §2, §3

[10] = system: Streptococcus pyogenes NCTC 8306; assay: as above; format: cell-based; design: key: − = no fluorescence detected; +/− = weak fluorescence; + = medium fluorescence; ++ = strong fluorescence; details: 100 mg/l in Columbia agar, 24 h 37° C., UV 360-365 nm
Description: as §1, §2, §3

[11] = system: Listeria monocytogenes NCTC 11994; assay: as above; format: cell-based; design: key: − = no fluorescence detected; +/− = weak fluorescence; + = medium fluorescence; ++ = strong fluorescence; details: 100 mg/l in Columbia agar, 24 h 37° C., UV 360-365 nm
Description: as §1, §2, §3

[12] = system: Pseudomonas aeruginosa NCTC 10662; assay: as above; format: cell-based; design: key: − = no fluorescence detected; +/− = weak fluorescence; + = medium fluorescence; ++ = strong fluorescence; details: 100 mg/l in Columbia agar, 24 h 37° C., UV 360-365 nm
Description: as §1, §2, §3

[13] = system: Yersinia enterocolitica NCTC 11176; assay: as above; format: cell-based; design: key: − = no fluorescence detected; +/− = weak fluorescence; + = medium fluorescence; ++ = strong fluorescence; details: 100 mg/l in Columbia agar, 24 h 37° C., UV 360-365 nm
Description: as §1, §2, §3

[14] = system: Enterococcus faecalis NCTC 775; assay: as above; format: cell-based; design: key: − = no fluorescence detected; +/− = weak fluorescence; + = medium fluorescence; ++ = strong fluorescence; details: 100 mg/l in Columbia agar, 24 h 37° C., UV 360-365 nm
Description: as §1, §2, §3

[15] = system: Morganella morganii 462403 (wild); assay: as above; format: cell-based; design: key to Intensity of fluorescence, Morganella morganii 462403 / F: fluorescence (intensity), Morganella morganii 462403 (wild) / Intensity of the fluorescence, Morganella morganii 462403 (wild): − = no fluorescence detected; +/− = weak fluorescence; + = medium fluorescence; ++ = strong fluorescence; details: 100 mg/l in Columbia agar, 24 h 37° C., UV 360-365 nm
Description: as §1, §2, §3

Enterococcus 6 strains = assay: Detection of various strains of S. aureus in the presence of substrates; format: cell-based
Staph spp 12 strains = assay: as above; format: cell-based
MRSA NCTC 11939 = assay: Nitroreductase detection on Columbia agar, colonies read under UV; format: cell-based, Staphylococcus aureus; design: key: − = no fluorescence detected; +/− = weak fluorescence; + = medium fluorescence; ++ = strong fluorescence; details: 100 mg/l in Columbia agar, 24 h 37° C., UV 360-365 nm
Description: as §1, §2, §3

[16] = system: Acinetobacter baumanii ATCC 19606; assay: as above; format: cell-based; design: key to Intensity of fluorescence, Acinetobacter baumanii ATCC 19606 / Intensity of the fluorescence, Acinetobacter baumanii ATCC 19606: − = no fluorescence detected; +/− = weak fluorescence; + = medium fluorescence; ++ = strong fluorescence
Description: as §1, §2, §3

[17] = system: Salmonella typhimurium NCTC 74; assay: as above; format: cell-based; design: key to Intensity of fluorescence, Salmonella typhimurium NCTC 74 / F: fluorescence (intensity), Salmonella typhimurium NCTC 74 / Intensity of the fluorescence, Salmonella typhimurium NCTC 74: − = no fluorescence detected; +/− = weak fluorescence; + = medium fluorescence; ++ = strong fluorescence
Description: as §1, §2, §3

[18] = 100 mg/l in Columbia agar, 24 h 37° C., UV 360-365 nm

Compound | Distinguishing or identifying Staphylococcus aureus strains, in particular MRSA, from most of the other Gram-positive bacterial strains [2] | No. of strains detected, S. aureus (including MRSA) ([2]; 24 h) | No. of strains detected, S. aureus (including MRSA) ([2]; 48 h) | No. of strains detected, S. epidermidis (S. epidermidis 2 strains; 24 h) | No. of strains detected, S. epidermidis (S. epidermidis 2 strains; 48 h) | No. of strains detected, Enterococcus (Enterococcus 6 strains; 24 h) | No. of strains detected, Enterococcus (Enterococcus 6 strains; 48 h) | No. of strains detected, Staph spp (Staph spp 12 strains; 24 h) | No. of strains detected, Staph spp (Staph spp 12 strains; 48 h) | further results
O=[N+]([O-])c1ccccc1-c1nc2cc(Cl)ccc2o1 [Substrate 2] | make it possible to distinguish or identify the Staphylococcus aureus strains | 10 | 10 | 0 | 2 | 0 | 1 | 12 | 12 | Intensity of fluorescence, Candida glabrata NCPF3943 [1]: −; Intensity of fluorescence, Bacillus subtilis NCTC 9372 [3]: −; Intensity of fluorescence, Staphylococcus aureus NCTC 6571 [4]: +; Intensity of fluorescence, Serratia marcescens NCTC 10211 [5]: +; Intensity of fluorescence, Escherichia coli NCTC 10418 [6]: +^1; Intensity of fluorescence, Enterobacter cloacae NCTC 11936 [7]: +; Intensity of fluorescence, Staphylococcus epidermidis NCTC 11047 [8]: −; Intensity of fluorescence, Candida albicans ATCC 90028 [9]: −; Intensity of fluorescence, Streptococcus pyogenes NCTC 8306 [10]: −; Intensity of fluorescence, Listeria monocytogenes NCTC 11994 [11]: −; Intensity of fluorescence, Pseudomonas aeruginosa NCTC 10662 [12]: −; Intensity of fluorescence, Yersinia enterocolitica NCTC 11176 [13]: +/−; Intensity of fluorescence, Enterococcus faecalis NCTC 775 [14]: −; Intensity of fluorescence, Morganella morganii 462403 [15]: +/−; Intensity of fluorescence, Staphylococcus aureus NCTC 11939 (MRSA NCTC 11939): +; Intensity of fluorescence, Acinetobacter baumanii ATCC 19606 [16, 18]: +/−; Distinguishing Pseudomonas aeruginosa from Acinetobacter baumanii ([16]; table 2): make it possible to distinguish Pseudomonas aeruginosa from Acinetobacter baumanii; Intensity of fluorescence, Salmonella typhimurium NCTC 74 [17, 18]: −; Salmonella typhimurium result with the substrate ([17]; table 2): negative
Cc1ccc2oc(-c3ccccc3[N+](=O)[O-])nc2c1 [Substrate 3] | make it possible to distinguish or identify the Staphylococcus aureus strains | 10 | 10 | 0 | 2 | 0 | 1 | 12 | 12 | 
O=[N+]([O-])c1ccc(Cl)cc1-c1nc2ccccc2o1 [Substrate 4] | make it possible to distinguish or identify the Staphylococcus aureus strains | 10 | 10 | 0 | 2 | 0 | 1 | 12 | 12 | 
